# According to ChEMBL document CHEMBL4680245, “Design, synthesis and biological evaluation of tetrahydroquinoline-based reversible LSD1 inhibitors” (Eur J Med Chem, 2020):
# Activity calls are given as the source filed them. No cut-off for these calls is given here.
# Legend:
# [1] = target: T1, Lysine-specific histone demethylase 1A (Homo sapiens, UniProt O60341); assay: Inhibition of LSD1 (unknown origin) by TR-FRET assay
# [2] = target: T1, Lysine-specific histone demethylase 1A
# Description: Inhibition of human recombinant LSD1 using fluorogenic ADHP based substrate preincubated for 30 mins followed by substrate addition measured after 10 mins by horseradish peroxidase coupled fluorescence assay
# [3] = target: T1, Lysine-specific histone demethylase 1A; assay: Reversible inhibition of recombinant N-terminal FLAG-tagged human LSD1 expressed in baculovirus infected Sf9 insect cells at 10 times IC50 using H3K4me2 as substrate preincubated for 30 mins followed by 100 fold dilution and subsequent substrate addition and measured after 30 mins by jump dilution method; details: time 60.0 min
# [4] = target: T1, Lysine-specific histone demethylase 1A; assay: Non-competitive inhibition of recombinant N-terminal FLAG-tagged human LSD1 expressed in baculovirus infected Sf9 insect cells up to 0.6 uM using varying levels of H3K4me2 as substrate measured after 45 mins by Lineweaver-burk plot analysis; details: dose microM <=0.6, time 45.0 min
# [5] = target: T2, Amine oxidase [flavin-containing] A (Homo sapiens, UniProt P21397); assay: Inhibition of recombinant N-terminal FLAG-tagged human MAOA expressed in baculovirus infected Sf9 insect cells using luminogenic MAO substrate measured after 1 hr by MAO-glo assay
# T2 sequence (P21397 whole entry): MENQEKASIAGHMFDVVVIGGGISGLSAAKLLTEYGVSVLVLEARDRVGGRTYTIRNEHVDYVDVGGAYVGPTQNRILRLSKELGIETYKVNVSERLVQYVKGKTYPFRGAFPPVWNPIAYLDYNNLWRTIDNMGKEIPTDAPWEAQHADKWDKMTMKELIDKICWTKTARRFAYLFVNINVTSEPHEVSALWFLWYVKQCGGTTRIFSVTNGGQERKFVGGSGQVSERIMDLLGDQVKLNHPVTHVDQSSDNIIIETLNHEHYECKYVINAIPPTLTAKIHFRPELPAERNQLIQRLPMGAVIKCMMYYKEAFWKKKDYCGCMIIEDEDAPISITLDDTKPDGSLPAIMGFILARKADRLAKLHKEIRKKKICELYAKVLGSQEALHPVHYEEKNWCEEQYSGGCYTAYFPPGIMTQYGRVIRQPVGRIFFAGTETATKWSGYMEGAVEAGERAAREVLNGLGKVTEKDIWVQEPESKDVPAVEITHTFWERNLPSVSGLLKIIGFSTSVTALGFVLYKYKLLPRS
# [6] = target: T3, Amine oxidase [flavin-containing] B (Homo sapiens, UniProt P27338); assay: Inhibition of recombinant N-terminal FLAG-tagged human MAOB expressed in baculovirus infected Sf9 insect cells using luminogenic MAO substrate measured after 1 hr by MAO-glo assay
# T3 sequence (P27338 whole entry): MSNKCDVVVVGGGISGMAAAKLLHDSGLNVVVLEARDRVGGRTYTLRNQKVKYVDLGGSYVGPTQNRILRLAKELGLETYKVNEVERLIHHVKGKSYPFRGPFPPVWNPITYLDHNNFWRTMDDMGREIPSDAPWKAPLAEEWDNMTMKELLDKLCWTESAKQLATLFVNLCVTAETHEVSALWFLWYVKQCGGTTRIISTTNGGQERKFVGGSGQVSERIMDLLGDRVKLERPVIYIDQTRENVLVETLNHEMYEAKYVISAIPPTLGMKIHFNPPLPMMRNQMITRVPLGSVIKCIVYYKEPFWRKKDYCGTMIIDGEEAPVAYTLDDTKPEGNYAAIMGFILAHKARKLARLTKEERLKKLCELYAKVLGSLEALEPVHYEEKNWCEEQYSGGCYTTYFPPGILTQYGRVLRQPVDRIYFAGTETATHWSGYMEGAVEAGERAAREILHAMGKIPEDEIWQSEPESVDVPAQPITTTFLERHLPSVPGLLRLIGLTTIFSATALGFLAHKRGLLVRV
# [7] = target: T1, Lysine-specific histone demethylase 1A; assay: Inhibition of LSD1 in human MGC-803 cells assessed as increase in H3K4me2 accumulation measured after 72 hrs by Western blot analysis; type: cell-based
# [8] = target: T1, Lysine-specific histone demethylase 1A; assay: Inhibition of LSD1 in human MGC-803 cells assessed as increase in H3K9me2 accumulation up to 4 uM measured after 72 hrs by Western blot analysis; type: cell-based; details: dose microM <=4, time 72.0 hrs
# [9] = target: T1, Lysine-specific histone demethylase 1A; assay: Inhibition of LSD1 in human MGC-803 cells assessed as increase in H3K9me1 accumulation up to 4 uM measured after 72 hrs by Western blot analysis; type: cell-based; details: dose microM <=4, time 72.0 hrs
# MGC-803 [10] = assay: Induction of apoptosis in human MGC-803 cells after 72 hrs by Annexin V-FITC/propidium iodide staining based flow cytometry; type: functional, cell-based
# MGC-803 [11] = assay: Cell cycle arrest in human MGC-803 cells assessed as increase in S phase accumulation at 4 uM after 72 hrs by propidium iodide staining based flow cytometry; type: functional
# MGC-803 [12] = assay: Cell cycle arrest in human MGC-803 cells assessed as decrease in G2/M phase accumulation at 4 uM after 72 hrs by propidium iodide staining based flow cytometry; type: functional
# [13] = Half life in human liver microsomes preincubated for 10 mins followed by NADPH regenerating system addition and measured up to 60 mins by LC-MS/MS analysis; type: ADME, Microsome; details: time 10-70 min
# [14] = Intrinsic clearance in human microsomes preincubated for 10 mins followed by NADPH regenerating system addition and measured up to 60 mins by LC-MS/MS analysis; type: ADME, Microsome; details: time 10-70 min
# [15] = Stability in human liver microsomes assessed as parent compound remaining preincubated for 10 mins followed by NADPH regenerating system addition and measured up to 60 mins by LC-MS/MS analysis; type: ADME, Microsome; details: time 10-70 min, read-out: Stabilty
# [16] = Stability in human liver microsomes assessed as parent compound remaining measured 60 mins after mins by LC-MS/MS analysis; type: ADME, Microsome
# MGC-803 [17] = assay: Induction of apoptosis in human MGC-803 cells assessed as apoptotic rate at 4 uM after 72 hrs by Annexin V-FITC/propidium iodide staining based flow cytometry relative to control; type: functional
# A549 = assay: cells; details: Homo sapiens, A549, 72 h
# Description: Antiproliferative activity against human A549 cells incubated for 72 hrs by CCK8 assay
# MGC-803 [18] = assay: cells; details: Homo sapiens, MGC-803, 72 h
# Description: Antiproliferative activity against human MGC-803 cells incubated for 72 hrs by CCK8 assay
# MCF7 = assay: cells; details: Homo sapiens, MCF7, 72 h
# Description: Antiproliferative activity against human MCF7 cells incubated for 72 hrs by CCK8 assay
# PC-3 = assay: cells; details: Homo sapiens, PC-3, 72 h
# Description: Antiproliferative activity against human PC-3 cells incubated for 72 hrs by CCK8 assay
# THP-1 = assay: cells; details: Homo sapiens, THP-1, 72 h
# Description: Antiproliferative activity against human THP-1 cells incubated for 72 hrs by CCK8 assay
# NB-4 = assay: cells; details: Homo sapiens, NB-4, 72 h
# Description: Antiproliferative activity against human NB-4 cells incubated for 72 hrs by CCK8 assay
# CYP1A2 = target: T4, CYP1A2 (Homo sapiens, UniProt P05177); assay: Inhibition of CYP1A2 in human liver microsomes at 10 uM using CYP substrate preincubated for 10 mins followed by NADPH generating system addition and measured after 10 mins by LC-MS/MS analysis relative to control; type: ADME; details: time 20 min
# T4 sequence (P05177 whole entry): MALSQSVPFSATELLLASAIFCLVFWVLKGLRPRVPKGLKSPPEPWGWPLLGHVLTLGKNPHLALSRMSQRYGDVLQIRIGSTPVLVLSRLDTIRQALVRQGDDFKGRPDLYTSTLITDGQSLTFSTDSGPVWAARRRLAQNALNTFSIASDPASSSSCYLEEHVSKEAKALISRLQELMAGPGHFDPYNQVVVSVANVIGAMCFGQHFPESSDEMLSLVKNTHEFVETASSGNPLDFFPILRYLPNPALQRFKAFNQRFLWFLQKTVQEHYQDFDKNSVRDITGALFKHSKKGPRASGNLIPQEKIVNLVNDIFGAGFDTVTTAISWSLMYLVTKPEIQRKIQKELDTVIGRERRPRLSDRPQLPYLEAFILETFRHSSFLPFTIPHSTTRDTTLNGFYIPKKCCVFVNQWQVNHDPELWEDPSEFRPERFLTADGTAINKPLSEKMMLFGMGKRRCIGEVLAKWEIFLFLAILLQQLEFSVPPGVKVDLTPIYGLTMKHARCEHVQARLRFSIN
# CYP2C9 = CYP2C9 (Homo sapiens, UniProt P11712); assay: Inhibition of CYP2C9 in human liver microsomes at 10 uM using CYP substrate preincubated for 10 mins followed by NADPH generating system addition and measured after 10 mins by LC-MS/MS analysis relative to control; type: ADME; details: time 20 min
# Sequence of CYP2C9 (P11712 whole entry): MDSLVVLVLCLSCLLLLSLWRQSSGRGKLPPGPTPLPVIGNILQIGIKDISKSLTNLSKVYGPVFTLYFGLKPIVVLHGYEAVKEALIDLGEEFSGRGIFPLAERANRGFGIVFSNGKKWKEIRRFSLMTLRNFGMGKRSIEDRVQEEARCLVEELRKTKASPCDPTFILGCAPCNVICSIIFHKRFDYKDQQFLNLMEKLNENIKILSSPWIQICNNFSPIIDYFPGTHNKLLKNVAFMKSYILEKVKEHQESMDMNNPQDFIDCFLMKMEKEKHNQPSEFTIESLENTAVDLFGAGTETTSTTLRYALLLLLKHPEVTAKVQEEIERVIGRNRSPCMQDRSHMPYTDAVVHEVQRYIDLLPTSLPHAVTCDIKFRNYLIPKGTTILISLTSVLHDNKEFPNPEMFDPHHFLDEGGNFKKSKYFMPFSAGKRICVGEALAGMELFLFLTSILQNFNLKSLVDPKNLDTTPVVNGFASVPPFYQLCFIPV
# CYP2C19 = CYP2C19 (Homo sapiens, UniProt P33261); assay: Inhibition of CYP2C19 in human liver microsomes at 10 uM using CYP substrate preincubated for 10 mins followed by NADPH generating system addition and measured after 10 mins by LC-MS/MS analysis relative to control; type: ADME; details: time 20 min
# Sequence of CYP2C19 (P33261 whole entry): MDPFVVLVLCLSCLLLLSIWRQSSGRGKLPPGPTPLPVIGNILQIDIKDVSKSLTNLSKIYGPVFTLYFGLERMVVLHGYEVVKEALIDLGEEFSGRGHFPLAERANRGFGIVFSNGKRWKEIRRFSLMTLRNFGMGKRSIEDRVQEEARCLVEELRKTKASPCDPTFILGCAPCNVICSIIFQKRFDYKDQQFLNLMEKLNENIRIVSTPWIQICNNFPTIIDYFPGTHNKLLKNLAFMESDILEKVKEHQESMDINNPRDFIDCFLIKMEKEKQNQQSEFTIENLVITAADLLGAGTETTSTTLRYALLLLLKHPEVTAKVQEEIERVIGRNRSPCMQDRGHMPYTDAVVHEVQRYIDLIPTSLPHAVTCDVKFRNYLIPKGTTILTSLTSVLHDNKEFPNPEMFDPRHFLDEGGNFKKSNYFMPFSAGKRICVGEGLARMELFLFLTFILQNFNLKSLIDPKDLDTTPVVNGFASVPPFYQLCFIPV
# CYP2D6 = CYP2D6 (Homo sapiens, UniProt P10635); assay: Inhibition of CYP2D6 in human liver microsomes at 10 uM using CYP substrate preincubated for 10 mins followed by NADPH generating system addition and measured after 10 mins by LC-MS/MS analysis relative to control; type: ADME; details: time 20 min
# Sequence of CYP2D6 (P10635 whole entry): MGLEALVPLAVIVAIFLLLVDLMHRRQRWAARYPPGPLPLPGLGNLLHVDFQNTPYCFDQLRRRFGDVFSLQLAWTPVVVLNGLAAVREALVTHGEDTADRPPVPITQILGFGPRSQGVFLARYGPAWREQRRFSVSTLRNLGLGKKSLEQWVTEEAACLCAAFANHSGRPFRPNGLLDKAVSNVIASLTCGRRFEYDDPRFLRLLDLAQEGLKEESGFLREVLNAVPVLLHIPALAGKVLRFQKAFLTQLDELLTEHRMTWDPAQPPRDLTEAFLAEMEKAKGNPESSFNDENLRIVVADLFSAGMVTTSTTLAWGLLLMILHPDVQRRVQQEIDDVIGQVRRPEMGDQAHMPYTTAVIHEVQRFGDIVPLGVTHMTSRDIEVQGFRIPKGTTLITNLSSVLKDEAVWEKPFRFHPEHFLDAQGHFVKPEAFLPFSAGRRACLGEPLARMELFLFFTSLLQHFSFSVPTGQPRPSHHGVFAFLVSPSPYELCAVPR
# CYP3A4 = CYP3A4 (Homo sapiens, UniProt P08684); assay: Inhibition of CYP3A4 in human liver microsomes at 10 uM using CYP substrate preincubated for 10 mins followed by NADPH generating system addition and measured after 10 mins by LC-MS/MS analysis relative to control; type: ADME; details: time 20 min
# Sequence of CYP3A4 (P08684 whole entry): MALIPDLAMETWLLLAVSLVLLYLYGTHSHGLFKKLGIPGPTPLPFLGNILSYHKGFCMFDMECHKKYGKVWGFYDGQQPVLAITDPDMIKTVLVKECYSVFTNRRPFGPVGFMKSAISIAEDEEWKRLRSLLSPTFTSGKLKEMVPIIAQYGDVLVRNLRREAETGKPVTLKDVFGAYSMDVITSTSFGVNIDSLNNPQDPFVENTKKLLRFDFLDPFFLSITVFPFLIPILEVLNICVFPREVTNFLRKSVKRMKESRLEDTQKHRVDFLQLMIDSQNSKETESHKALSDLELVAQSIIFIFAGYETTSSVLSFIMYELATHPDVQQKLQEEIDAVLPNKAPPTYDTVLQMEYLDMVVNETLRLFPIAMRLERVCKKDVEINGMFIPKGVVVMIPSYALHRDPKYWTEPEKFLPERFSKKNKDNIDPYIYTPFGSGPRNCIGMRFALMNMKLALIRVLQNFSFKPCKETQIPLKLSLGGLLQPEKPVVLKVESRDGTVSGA
# MGC-803 [19] = assay: Antitumor activity against human MGC-803 cells xenografted in Balb/c nude mouse assessed as reduction in tumor weight at 100 mg/kg, po administered once daily via gavage for 21 days measured post last dose relative to control; type: functional; parameters: scale not given: the % may be the effect or the level left; details: time 21 day
# MGC-803 [20] = assay: Antitumor activity against human MGC-803 cells xenografted in Balb/c nude mouse assessed as reduction in tumor volume at 100 mg/kg, po administered once daily via gavage for 21 days measured post last dose relative to control; type: functional; parameters: scale not given: the % may be the effect or the level left; details: time 21 day
# [21] = Toxicity in human MGC-803 cells xenografted Balb/c nude mouse assessed as body weight loss at 50 to 100 mg/kg, po administered once daily via gavage for 21 days measured at 3 days interval during compound dosing; type: organism-based; details: in vivo, 504 h, dose 50-100 mg/kg, time 21 day
IC50 [2] [nM],IC50 [5] [µM],IC50 [6] [µM],inhibition [7],half-life [13] [min],microsomal CLint [14] [µL/min/mg],remaining at 1 h [15] [%],IC50 (A549) [µM],IC50 (MGC-803 [18]) [µM],IC50 (MCF7) [µM],IC50 (PC-3) [µM],IC50 (THP-1) [µM],IC50 (NB-4) [µM],Structure (SMILES),Activity (MGC-803 [10]),Activity (MGC-803 [11]),Activity (MGC-803 [12]),Activity (MGC-803 [17]) [%],other results
0.1,,,,,,,,,,,,,CCOCc1cccc(NC(=O)c2cc3sccc3n2C)c1COc1ccc(OC[C@H]2CCNC2)cc1,,,,,IC50 [1]: 0.0078 µM
0.05,> 50,> 50,Dose-dependent effect,27.7,50.1,20.3,5.97,1.13,5.83,2.86,9.68,9.53,Cn1c(C(=O)Nc2cccc3c2N(Cc2ccc(OC4CCNCC4)cc2)CCC3)cc2ccccc21,Dose-dependent effect,Active,Active,22.79,"inhibition [3]: Active; inhibition [4]: Active; inhibition [8]: Active; inhibition [9]: Active; remaining at 1 h ([16]; liver microsomes, read-out: Stabilty): 101%"
0.54,> 50,> 50,Dose-dependent effect,61.9,22.4,57.5,3.01,1.75,9.49,4.29,9.63,1.13,Cn1c(C(=O)Nc2cccc3c2N(Cc2ccc(OC4CCNCC4)cc2)CCC3)cc2cc(F)ccc21,Dose-dependent effect,Active,Active,24.86,"Stabilty ([16]; microsomes, 1 h): 122.6%; inhibition at 10 min, 10 µM (CYP1A2): 4.6%; inhibition at 10 min, 10 µM (CYP2C9): 0%; inhibition at 10 min, 10 µM (CYP2C19): 16.1%; inhibition at 10 min, 10 µM (CYP2D6): 6.1%; inhibition at 10 min, 10 µM (CYP3A4): 40.1%; Activity (MGC-803 [19]): 28.1%; Activity (MGC-803 [20]): 28.6%; Activity [21]: Non-Toxic"
